Molecules are shown by their SMILES.

The target in this experiment is human TRPA1 (Homo sapiens (Human), UniProt O75762). In words: Measurement of TRPA1 antagonist activity (2): as (1), different lot of human TRPA1 expression plasmid. Type of experiment: cell-based. Conditions: 293T cells transfected with human TRPA1, allylisothiocyanate 20 μM stimulation, calcium fluorescence, read-out: hTRPA1 IC50. A digest of the protocol: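 HEK293T cells transiently transfected with human TRPA1 plasmid (different lot), loaded with Calcium4 dye in HBSS/20 mM HEPES pH 7.2. Test compound preincubated 10 min, then allylisothiocyanate added at 20 μM final and fluorescence change read for 5 min. IC50 from sigmoid fit of inhibition relative to AITC-alone and buffer controls.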
Sequence of human TRPA1 (O75762 whole entry): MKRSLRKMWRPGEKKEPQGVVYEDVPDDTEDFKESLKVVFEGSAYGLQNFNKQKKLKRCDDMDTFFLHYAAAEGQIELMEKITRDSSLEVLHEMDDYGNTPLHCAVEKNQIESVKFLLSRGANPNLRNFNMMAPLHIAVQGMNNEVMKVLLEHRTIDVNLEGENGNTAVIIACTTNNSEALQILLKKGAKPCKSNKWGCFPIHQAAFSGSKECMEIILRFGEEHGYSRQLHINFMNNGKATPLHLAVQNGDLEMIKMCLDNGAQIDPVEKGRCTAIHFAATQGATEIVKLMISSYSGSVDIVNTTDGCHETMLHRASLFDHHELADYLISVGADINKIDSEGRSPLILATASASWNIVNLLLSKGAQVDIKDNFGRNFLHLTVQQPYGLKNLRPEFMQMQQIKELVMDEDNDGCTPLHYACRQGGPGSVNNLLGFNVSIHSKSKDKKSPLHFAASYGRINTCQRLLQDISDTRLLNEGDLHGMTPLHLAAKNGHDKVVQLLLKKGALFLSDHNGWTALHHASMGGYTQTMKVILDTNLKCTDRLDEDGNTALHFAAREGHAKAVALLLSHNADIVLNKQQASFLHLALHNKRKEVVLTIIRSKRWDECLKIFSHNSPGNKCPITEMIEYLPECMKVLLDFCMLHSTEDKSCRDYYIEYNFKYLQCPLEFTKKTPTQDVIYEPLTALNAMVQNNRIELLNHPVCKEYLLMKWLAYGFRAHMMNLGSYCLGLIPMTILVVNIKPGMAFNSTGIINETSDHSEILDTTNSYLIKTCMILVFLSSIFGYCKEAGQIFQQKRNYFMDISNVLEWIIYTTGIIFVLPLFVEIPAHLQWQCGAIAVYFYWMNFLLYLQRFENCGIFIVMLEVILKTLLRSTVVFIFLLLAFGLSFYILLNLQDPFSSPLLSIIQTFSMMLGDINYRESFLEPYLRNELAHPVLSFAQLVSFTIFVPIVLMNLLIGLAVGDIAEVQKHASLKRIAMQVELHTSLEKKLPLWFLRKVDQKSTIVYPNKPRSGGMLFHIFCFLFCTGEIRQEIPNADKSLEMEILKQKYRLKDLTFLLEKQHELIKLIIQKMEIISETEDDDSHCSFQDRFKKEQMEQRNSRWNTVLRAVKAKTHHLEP
On to `O=C(NCc1cc(-c2ccc(C(F)(F)F)cc2)nc(N2CCCC2)n1)[C@@H]1CCCN1S(=O)(=O)c1cc2ccccc2o1` [Example 329, (2S)-1-(benzofuran-2-ylsulfonyl)-N-[[2-pyrrolidin-1-yl-6-[4-(trifluoromethyl)phenyl]pyrimidin-4-yl]methyl]pyrrolidine-2-carboxamide], for which the IC50 – broadly, the concentration at which inhibition is half-maximal – was found to be 14 nM.

Regarding `O=C(NCc1cc(-c2ccc(OC(F)(F)F)cc2)ncn1)[C@@H]1CCN1S(=O)(=O)c1cc2cc(F)ccc2o1` [Example 395], the IC50 came to 3.2 nM.

Take `CN(CC(=O)NCc1cc(-c2ccc(C(F)(F)F)cn2)ccn1)S(=O)(=O)c1cc2cc(F)ccc2o1` [Example 339, 2-[(5-fluorobenzofuran-2-yl)sulfonyl-methyl-amino]-N-[[4-[5-(trifluoromethyl)-2-pyridyl]-2-pyridyl]methyl]acetamide]: the IC50 was found to be 11 nM.

Consider `CC(C)N(CC(=O)NCc1cc(-c2ccc(C(F)(F)F)cc2)ncn1)S(=O)(=O)c1cc2cc(F)ccc2o1` [Example 420, 2-[(5-fluorobenzofuran-2-yl)sulfonyl-isopropyl-amino]-N-[[6-[4-(trifluoromethyl)phenyl]pyrimidin-4-yl]methyl]acetamide], for which the IC50 stood at 10 nM.

In the case of `C[C@H](NS(=O)(=O)c1cc2cnccc2o1)C(=O)NCc1cccc(-c2ccc(C(F)(F)F)cn2)c1` [Example 367, (2S)-2-(furo[3,2-c]pyridin-2-ylsulfonylamino)-N-[[3-[5-(trifluoromethyl)-2-pyridyl]-phenyl]methyl]propanamide], the IC50 came to 170 nM.

In the case of `C[C@H](NS(=O)(=O)c1cc2cnccc2o1)C(=O)NCc1cc(-c2ccc(C(F)(F)F)cc2)nc(N(C)C)n1` [Example 369, (2S)-N-[[2-(dimethylamino)-6-[4-(trifluoromethyl)-phenyl]pyrimidin-4-yl]methyl]-2-(furo[3,2-c]pyridin-2-ylsulfonylamino)propanamide], the IC50 was found to be 44 nM.

Take `CC(C)N(CC(=O)NCc1cc(-c2ccc(OC(F)(F)F)cc2)ncn1)S(=O)(=O)c1cc2cc(F)ccc2o1` [Example 364, 2-[(5-fluorobenzofuran-2-yl)sulfonyl-isopropyl-amino]-N-[[6-[4-(trifluoromethoxy)-phenyl]pyrimidin-4-yl]methyl]acetamide]: the IC50 was 10 nM.

Consider `CN(C)c1nc(CNC(=O)[C@@H]2CCN2S(=O)(=O)c2cc3cc(F)ccc3o2)cc(-c2ccc(C(F)(F)F)cc2)n1` [Example 379, (2S)-N-[[2-(dimethylamino)-6-[4-(trifluoromethyl)phenyl]-pyrimidin-4-yl]methyl]-1-(5-fluorobenzofuran-2-yl)sulfonyl-azetidine-2-carboxamide], for which the IC50 turned out to be 19 nM.

As to `C[C@H](NS(=O)(=O)c1cc2cc(F)ccc2o1)C(=O)NCc1cc(-c2ccc(C(F)(F)F)cc2)nc(N(C)C)n1` [Example 370, (2S)-N-[[2-(dimethylamino)-6-[4-(trifluoromethyl)-phenyl]pyrimidin-4-yl]methyl]-2-[(5-fluorobenzofuran-2-yl)sulfonylamino]propanamide], the IC50 came out at 73 nM.

Take `O=C(NCc1cc(-c2ccc(C(F)(F)F)cn2)ncn1)[C@@H]1CCCN1S(=O)(=O)c1cc2cc(F)ccc2o1` [Example 400, (2S)-1-(5-fluorobenzofuran-2-yl)sulfonyl-N-[[6-[5-(trifluoromethyl)-2-pyridyl]pyrimidin-4-yl]methyl]pyrrolidine-2-carboxamide]: the IC50 turned out to be 5.2 nM.

For `O=C(CNS(=O)(=O)c1cc2cc(F)ccc2o1)NCc1cc(-c2ccc(OC(F)(F)F)cc2)ncn1` [Example 363, 2-[(5-fluorobenzofuran-2-yl)sulfonylamino]-N-[[6-[4-(trifluoromethoxy)phenyl]-pyrimidin-4-yl]methyl]acetamide], the IC50 turned out to be 920 nM.

On to `C[C@H](NS(=O)(=O)c1cc2cc(F)ccc2o1)C(=O)NCc1cc(-c2ccc(C(F)(F)F)cc2O)nc(N(C)C)n1` [Example 377, (2S)-N-[[2-(dimethylamino)-6-[2-hydroxy-4-(trifluoromethyl)phenyl]-pyrimidin-4-yl]methyl]-2-[(5-fluorobenzofuran-2-yl)sulfonylamino]propanamide], for which the IC50 was determined as 110 nM.

For the origin of these results see US10626112B2, “Heterocyclic sulfonamide derivative and medicine comprising same” (EA PHARMA CO., LTD., priority 2014, dated 2020).
